Measurements published in patent publication US20040224958A1, “Pyridopyrimidinone derivatives for treatment of neurodegenerative disease” (priority 2000, published 2004).
Where two headings read alike, the source gives them in different places.

What was measured:
cdk2/cyclinA = cdk2/cyclinA (Homo sapiens, UniProt P24941); test: Cyclin-Dependent Kinase Assay cdk2/cyclinA
Cdk5/p25 = Cdk5/p25 (Homo sapiens, UniProt Q00535); test: Cyclin-Dependent Kinase 5 (cdk5) Assay; type: biochemical
Procedure, shortened: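 Radiometric filter-plate assay: components premixed 5 min, reaction started with histone substrate and [^32P]ATP, 45 min at 30° C.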

cdk4/D = cdk4/D (Homo sapiens, UniProt P11802); test: Cyclin-Dependent Kinase 4 (cdk4) Assay; type: biochemical
Sequence of cdk4/D (P11802 whole entry): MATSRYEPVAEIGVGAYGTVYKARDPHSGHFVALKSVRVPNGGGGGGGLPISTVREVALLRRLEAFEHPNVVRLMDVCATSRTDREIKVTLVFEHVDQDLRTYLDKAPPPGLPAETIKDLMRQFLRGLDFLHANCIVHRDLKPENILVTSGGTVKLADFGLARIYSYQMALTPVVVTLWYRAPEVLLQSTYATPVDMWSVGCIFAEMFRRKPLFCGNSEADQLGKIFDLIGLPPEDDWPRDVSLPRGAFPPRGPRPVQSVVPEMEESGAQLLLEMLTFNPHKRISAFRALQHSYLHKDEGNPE
Sequence of cdk4/D (P24385 whole entry, further chain): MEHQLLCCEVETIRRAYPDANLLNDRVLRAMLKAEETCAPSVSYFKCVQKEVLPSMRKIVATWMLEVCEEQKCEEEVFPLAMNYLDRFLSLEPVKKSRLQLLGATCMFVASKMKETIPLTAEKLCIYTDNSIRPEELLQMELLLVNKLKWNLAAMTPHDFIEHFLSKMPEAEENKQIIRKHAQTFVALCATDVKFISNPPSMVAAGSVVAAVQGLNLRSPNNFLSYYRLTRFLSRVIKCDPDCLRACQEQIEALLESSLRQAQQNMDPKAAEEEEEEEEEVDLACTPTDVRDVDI

cdc2/cyclinB = cdc2/cyclinB (Homo sapiens, UniProt P06493); test: Cyclin-Dependent Kinase Assay cdc2/cyclinB
Sequence of cdc2/cyclinB (P06493 whole entry): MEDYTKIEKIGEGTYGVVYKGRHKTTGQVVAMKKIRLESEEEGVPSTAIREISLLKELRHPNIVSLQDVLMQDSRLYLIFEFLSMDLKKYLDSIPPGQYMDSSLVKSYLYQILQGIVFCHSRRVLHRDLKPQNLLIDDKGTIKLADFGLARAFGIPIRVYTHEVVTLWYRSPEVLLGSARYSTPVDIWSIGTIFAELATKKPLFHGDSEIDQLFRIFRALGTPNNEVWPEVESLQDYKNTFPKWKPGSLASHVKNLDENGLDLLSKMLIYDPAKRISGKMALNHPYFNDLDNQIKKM
Sequence of cdc2/cyclinB (P14635 whole entry, further chain): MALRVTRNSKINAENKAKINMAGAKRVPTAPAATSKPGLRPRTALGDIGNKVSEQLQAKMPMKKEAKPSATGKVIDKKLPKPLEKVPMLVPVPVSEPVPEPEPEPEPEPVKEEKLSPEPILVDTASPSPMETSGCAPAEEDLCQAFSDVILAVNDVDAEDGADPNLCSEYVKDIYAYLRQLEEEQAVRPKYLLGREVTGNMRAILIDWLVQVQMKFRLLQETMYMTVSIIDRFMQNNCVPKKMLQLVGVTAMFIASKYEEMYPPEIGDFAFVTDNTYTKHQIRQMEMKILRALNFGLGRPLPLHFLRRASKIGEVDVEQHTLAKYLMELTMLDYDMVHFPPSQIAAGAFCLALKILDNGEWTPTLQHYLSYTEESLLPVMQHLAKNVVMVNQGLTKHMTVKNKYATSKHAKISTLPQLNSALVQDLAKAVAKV

cdk2/cyclinE = cdk2/cyclinE (Homo sapiens, UniProt P24941); test: Cyclin-Dependent Kinase Assay cdk2/cyclinE

SMILES | IC50 (cdk2/cyclinA; cdk2/A IC50, Table 1) [nM] | IC50 (Cdk5/p25; Table 1) [nM] | melting point [°C] | IC50 (cdk4/D; Table 1, read-out: cdk4/D IC50) [nM] | IC50 (cdc2/cyclinB) [nM] | IC50 (cdk2/cyclinA; Cdk2/A IC50, Table 3) [nM] | IC50 (Cdk5/p25; Table 3) [nM] | IC50 (cdk4/D; Table 3, read-out: Cdk4 IC50) [nM] | IC50 (cdk2/cyclinE; Cdk2/E IC50, Table 3) [nM] | IC50 (cdk2/cyclinE; cdk2/E IC50, Table 1) [nM]
O=c1ccc2cnc(Nc3ccc(N4CCCCC4)cc3)nc2n1[C@@H]1C[C@H]2CC[C@@H]1C2 (relative stereo) [Example 181, 8-Bicyclo[2.2.1]hept-2-yl-2-(4-piperidin-1-yl-phenylamino)-8H-pyrido[2,3-d]pyrimidin-7-one] | 195 | 591 | 243 to 244 | 57.7 | 33400 |  |  |  |  | 
COc1ccc(Nc2ncc3ccc(=O)n(C(C)C)c3n2)cc1 [Example 111, 8-Isopropyl-2-(4-methoxy-phenylamino)-8H-pyrido[2,3-d]pyrimidin-7-one] |  |  | 153 to 155 |  |  | 120 | 9.8 | 617 | 580 | 
CCN(CC)CCOc1ccc(Nc2ncc3ccc(=O)n(C4CCCC4)c3n2)cc1 [Example 117, 8-Cyclopentyl-2-[4-(2-diethylamino-ethoxy)-phenylamino]-8H-pyrido[2,3-d]pyrimidin-7-one] | 42.5 | 19 | 105 to 107 | 6.6 |  |  |  |  |  | 109
CCN(CC)CCOc1ccc(Nc2ncc3ccc(=O)n(-c4ccccc4)c3n2)cc1 [Example 118, 2-[4-(2-Diethylamino-ethoxy)-phenylamino]-8-phenyl-8H-pyrido[2,3-d]pyrimidin-7-one] | 206 | 237 | 165 to 167 | 200 |  |  |  |  |  | 1300
CCN(CC)CCOc1ccc(Nc2ncc3ccc(=O)n(C4CCCCC4)c3n2)cc1 [Example 132, 8-Cyclohexyl-2-[4-(2-diethylamino-ethoxy)-phenylamino]-8H-pyrido[2,3-d]pyrimidin-7-one] | 60.5 | 25.9 | 135 to 137 | 10.5 | 373 |  |  |  |  | 91
CN1CCN(c2ccc(Nc3ncc4ccc(=O)n(C5CCCCC5)c4n3)cc2)CC1 [Example 133, 8-Cyclohexyl-2-[4-(4-methyl-piperazin-1-yl)-phenylamino]-8H-pyrido[2,3-d]pyrimidin-7-one] | 15 | 6.9 | 205 to 207 | 4.5 | 78.5 |  |  |  |  | 19.7
CN(C)c1ccc(Nc2ncc3ccc(=O)n(CCCOCc4ccccc4)c3n2)cc1 [Example 138, 8-(3-Benzyloxy-propyl)-2-(4-dimethylamino-phenylamino)-8H-pyrido[2,3-d]pyrimidin-7-one] | 217 | 280 | 144 to 146 | 513 | 3300 |  |  |  |  | 2630
CC1CN(c2ccc(Nc3ncc4ccc(=O)n(C5CCCCC5)c4n3)cc2)CC(C)N1 (stereo not drawn) [Example 145, 8-Cyclohexyl-2-14-(3,5-dimethyl-piperazin-1-yl)-phenylamino-8H-pyrido[2,3-d]pyrimidin-7-one] | 32.5 | 17.3 | 237 to 239 | 4.5 | 146 |  |  |  |  | 45.5
CC1CCN(c2ccc(Nc3ncc4ccc(=O)n(C5CCCCC5)c4n3)cc2)CC1 [Example 159, 8-Cyclohexyl-2-[4-(4-methyl-piperidin-1-yl)-phenylamino]-8H-pyrido[2,3-d]pyrimidin-7-one] | 15 | 6.9 | 208 to 209 | 4.5 | 78.5 |  |  |  |  | 19.7
O=c1ccc2cnc(Nc3ccc(N4CCCC4)cc3)nc2n1C1CCCCC1 [Example 160, 8-Cyclohexyl-2-(4-pyrrolidin-1-yl-phenylamino)-8H1-pyrido[2,3-d]pyrimidin-7-one] | 61 | 113 | 199 to 200 | 175 | 250 |  |  |  |  | 
O=c1ccc2cnc(Nc3ccc(-n4cccc4)cc3)nc2n1C1CCCCC1 [Example 161, 8-Cyclohexyl-2-(4-pyrrole-1-yl-phenylamino)-811-pyrido[2,3-d]pyrimidin-7-one] | 104 | 43.1 | 183 to 184 | 275 | 450 |  |  |  |  | 554
CC1CC(C)CN(c2ccc(Nc3ncc4ccc(=O)n(C5CCCCC5)c4n3)cc2)C1 (stereo not drawn) [Example 167] | 272 | 2680 | 238 to 240 | 430 | 8910 |  |  |  |  | 
O=c1ccc2cnc(Nc3ccc(N4CCc5ccccc5C4)cc3)nc2n1C1CCCCC1 [Example 171, 8-Cyclohexyl-2-[4-(3,4-dihydro-1H-isoquinolin-2-yl)-phenylamino]-8H-pyrido[2,3-d]pyrimidin-7-one] | 123 | 419 | 185 |  | 1210 |  |  |  |  | 320
CC1CCCN(c2ccc(Nc3ncc4ccc(=O)n(C5CCCCC5)c4n3)cc2)C1 (stereo not drawn) [Example 175, 8-Cyclohexyl-2-[4-(3-methyl-piperidin-1-yl)-phenylamino]-8H-pyrido[2,3-d]pyrimidin-7-one] | 711 | 690 | 189 to 190 | 270 |  |  |  |  |  | 433
O=c1ccc2cnc(Nc3ccc(N4CCCCC4)cc3)nc2n1C1CCOCC1 [Example 211, 2-(4-Piperidin-1-yl-phenylamino)-8-(tetrahydro-pyran-4-yl)-8H-pyrido[2,3-d]pyrimidin-7-one] | 580 | 336 | 254 to 255 | 153 |  |  |  |  |  | 7600
O=c1ccc2cnc(Nc3ccc(N4CCC(CCCO)CC4)cc3)nc2n1C1CC2CCC1C2 (stereo not drawn) [Example 214, 8-Bicyclo[2.2.1]hept-2-yl-2-{4-[4-(3-hydroxy-propyl)-piperidin-1-yl]-phenylamino}-8H-pyrido[2,3-d]pyrimidin-7-one] | 205 | 3320 | 223 | 8 |  |  |  |  |  | 126
CCN(CC)CCOc1ccc(Nc2ncc3ccc(=O)n(C4CC5CCC4C5)c3n2)cc1 (stereo not drawn) [Example 224, 8-Bicyclo[2.2.1]hept-2-yl-2-[4-(2-diethylamino-ethoxy)-phenylamino]-8H-pyrido[2,3-d]pyrimidin-7-one] | 81.5 | 53.2 | 133 to 134 |  | 200 |  |  |  |  | 75
O=c1ccc2cnc(Nc3ccc(N4CCC(CCCN5CCOCC5)CC4)cc3)nc2n1C1CC2CCC1C2 (stereo not drawn) [Example 235, 8-Bicyclo[2.2.1]hept-2-yl-2-{4-[4-(3-morpholin-4-yl-propyl)-piperidin-1-yl]-phenylamino}-8H-pyrido[2,3-d]pyrimidin-7-one] | 96 | 1460 | 197 to 198 | 37 | 1700 |  |  |  |  | 
O=c1ccc2cnc(Nc3ccc(N4CCCC(CCCO)C4)cc3)nc2n1C1CC2CCC1C2 (stereo not drawn) [Example 236, 8-Bicyclo[2.2.1]hept-2-yl-2-{4-[3-(3-hydroxy-propy)-piperidin-1-yl]-phenylamino}-8H-pyrido[2,3-d]pyrimidin-7-one] | 13.6 | 395 | 150 to 151 | 6.9 | 674 |  |  |  |  | 
CC(C)n1c(=O)ccc2cnc(Nc3cccc([N+](=O)[O-])c3)nc21 [Example 623, 8-Isopropyl-2-(3-nitro-phenylamino)-8H-pyrido[2,3-d]pyrimidin-7-one] |  |  | 202 to 203 |  |  | 297 | 21 | 6250 | 760 | 
CC(C)n1c(=O)ccc2cnc(Nc3ccc(O)cc3)nc21 [Example 624, 8-Isopropyl-2-(4-hydroxy-phenylamino)-8H-pyrido[2,3-]pyrimidin-7-one] |  |  | > 220 |  |  | 61 | 15 | 255 | 221 | 
